Reference: patent publication US20040209270A1, “Method for identifying macrocyclic polyketides” (priority 2001, published 2004)

Columns and labels:
[1] = tested on: biosensor E. coli SM 101 (EBZ512, pEBZ511, pEBZ514); assay: Luminescence measurements in the agar-plate diffusion assay with the E. coli biosensor system (luciferase reporter under mph(A) promoter / MphR(A) control); type: cell-based; details: assay discs, 28° C., 2 to 4 hours or 15 to 24 hours, FIG. 3
Experimental: The agar-plate diffusion assay was incubated at 28° C. for 2 to 4 hours or 15 to 24 hours and luminescence was recorded using a Berthold Luminograph LB980 (FIGS. 3, 4 and 5). If luminescence is stimulated, it is detectable within a diffusion zone around the sample placed. If the sample assayed has, at the same time, an anti-bacterial activity against the sensor organism, which is noticeable as a zone of inhibition in the very preferred embodiment of the longer incubation, then the stimulation of luminescence is detectable outside this halo of inhibition in the sub-lethal concentration range.
(§1) Agar-plate diffusion assay and luminescence measurements using the E. coli biosensor system. Illustration of the selectivity of the biological sensor component. The numbers given in the information on the test substances indicate the amounts of substance applied in μg.
as §1, with “Exemplary illustration” for “Illustration”, “stimulation of luminescence” for “selectivity”, “component as a function of time.” for “component.”

[2] = tested on: microbial biosensor cell (E. coli biosensor system); assay: Detection of a macrolide-(erythromycin-) producing organism in situ, agar-plate diffusion assay with the biosensor; type: cell-based; details: assay disc or culture-covered agar blocks placed on biosensor suspension in soft agar; FIG. 5
From the text: For this purpose, the microbial biosensor cell was used in the agar-plate diffusion assay. Agar blocks were placed on the biosensor suspension embedded in soft agar. These agar blocks were covered either with Saccharopolyspora erythraea DSM 40517 described as erythromycin producer or with Streptomyces viridochromogenes DSM 40721 described as avilamycin producer. Another agar block contained no growth.
Agar-plate diffusion assay and luminescence measurements using the E. coli biosensor system. In situ stimulation of luminescence by an erythromycin-producing Saccharopolyspora erythraea culture. The number given in the information on the reference substance erythromycin indicates the amount of substance applied in μg.

Row | Structure (SMILES) | stimulation of luminescence of the biosensor system [1] | stimulation of luminescence of the biosensor system [2]
1 | CO[C@H]1C[C@H](O[C@H]2[C@H](C)[C@@H](O[C@@H]3O[C@H](C)C[C@H](N(C)C)[C@H]3O)[C@@H](C)C[C@@]3(CO3)C(=O)[C@H](C)[C@@H](O)[C@@H](C)[C@@H](C)OC(=O)[C@@H]2C)O[C@@H](C)[C@@H]1O [oleandomycin] | indicates | 
2 | CC[C@H]1OC(=O)[C@H](C)[C@@H](O[C@H]2C[C@@](C)(OC)[C@@H](O)[C@H](C)O2)[C@H](C)[C@@H](O[C@@H]2O[C@H](C)C[C@H](N(C)C)[C@H]2O)[C@](C)(O)C[C@@H](C)C(=O)[C@H](C)[C@@H](O)[C@]1(C)O [erythromycin] | indicates | stimulation of luminescence was detectable
3 | CN[C@H](CC(C)C)C(=O)N[C@H]1C(=O)N[C@@H](CC(N)=O)C(=O)N[C@H]2C(=O)N[C@H]3C(=O)N[C@H](C(=O)N[C@H](C(=O)O)c4cc(O)cc(O)c4-c4cc3ccc4O)[C@H](O)c3ccc(c(Cl)c3)Oc3cc2cc(c3O[C@@H]2O[C@H](CO)[C@@H](O)[C@H](O)[C@H]2O[C@H]2C[C@](C)(N)[C@H](O)[C@H](C)O2)Oc2ccc(cc2Cl)[C@H]1O [vancomycin] | do not cause a stimulation of luminescence | 
4 | CC[C@H]1OC(=O)[C@H](C)[C@@H](O[C@@H]2O[C@H](C)C[C@H](N(C)C)[C@H]2O)[C@@H](C)C[C@@H](C)C(=O)/C=C/[C@]1(C)O [methymycin] | stimulated | 
5 | CC[C@H]1OC(=O)[C@H](C)[C@@H](O[C@H]2C[C@@](C)(OC)[C@@H](O)[C@H](C)O2)[C@H](C)[C@@H](O[C@@H]2O[C@H](C)C[C@H](N(C)C)[C@H]2O)[C@](C)(O)C[C@@H](C)CN(C)[C@H](C)[C@@H](O)[C@]1(C)O [azithromycin] | stimulated | 
6 | CC[C@H]1OC(=O)[C@H](C)C(=O)[C@H](C)[C@@H](O[C@@H]2O[C@H](C)C[C@H](N(C)C)[C@H]2O)[C@@H](C)C[C@@H](C)C(=O)/C=C/[C@]1(C)O [picromycin] | indicates | 
7 | CO[C@@H]1[C@@H](OC(N)=O)[C@@H](O)[C@H](Oc2ccc3c(O)c(NC(=O)c4ccc(O)c(CC=C(C)C)c4)c(=O)oc3c2C)OC1(C)C [novobiocin] | do not cause a stimulation of luminescence | 
8 | CC[C@H]1OC(=O)[C@H](C)C(=O)[C@H](C)[C@@H](O[C@@H]2O[C@H](C)C[C@H](N(C)C)[C@H]2O)[C@@H](C)C[C@@H](C)C(=O)/C=C/[C@H]1C [narbomycin] | indicates | 
9 | O=C(N[C@H](CO)[C@H](O)c1ccc([N+](=O)[O-])cc1)C(Cl)Cl [chloramphenicol] | do not cause a stimulation of luminescence | 
10 | CC[C@H]1OC(=O)[C@H](C)[C@@H](O[C@H]2C[C@@](C)(OC)[C@@H](O)[C@H](C)O2)[C@H](C)[C@@H](O[C@@H]2O[C@H](C)C[C@H](N(C)C)[C@H]2O)[C@](C)(OC)C[C@@H](C)C(=O)[C@H](C)[C@@H](O)[C@]1(C)O [clarithromycin] | indicates | 
11 | C[C@@H]1O[C@@H]1P(=O)(O)O [fosfomycin] | do not cause a stimulation of luminescence | 
